78 compounds from publication PMC12040169 (PLOS Biology, 2025) can be followed below.

The data set in a line: in vitro. The following applies: human, hela cells, % viability.
For orientation: viability means a read-out of living cells in per cent, often relative to untreated cells. In the case of `NS(=O)(=O)c1ccc(CNC(=O)c2ccc(-c3ccc(OC(F)(F)F)cc3)nc2)cc1` [CBK156246], the viability at 28.5 h, 10 µM is 84.1%.
Under `O=C(c1ccccn1)N1C2CCC1CC(O)(c1ccco1)C2` (stereo not drawn) [CBK284034] stands 87%.
Under `CC(NS(=O)(=O)Cc1ccccc1Cl)C(=O)N1CCCCC1` (stereo not drawn) [CBK304928] stands 93.7%.
In the case of `CCNC(=S)N[C@@H]1CC[C@@]2(Cc3ccc(OC)c(OC)c3)CCN(C)[C@H]2C1` [CBK023811], the viability at 28.5 h, 10 µM was 94.5%.
Under `C[C@@H](c1ccccc1)N1C(=O)[C@@H]2CN(C(=O)CC3(CC(=O)O)CCCC3)CCN2C1=O` [CBK289637] stands 88.7%; under `CC(C)(C)c1ccc(OCc2nnc(Sc3nc4ccc([N+](=O)[O-])cc4s3)n2-c2ccccc2)cc1` [CBK263366], 105%; under `CCN(CC)CCN(Cc1ccc2c(c1)OCO2)C(=O)Nc1ccc2[nH]ccc2c1` [CBK159037], 96.7%.
Turning to `O=C(CCn1c(-c2ccncc2)cc2cccnc21)N1CCCC1` [CBK282151], the viability at 28.5 h, 10 µM came to 96.7%.
`COCCNC(=O)c1cnn2c(C)c(Cc3ccccc3C(F)(F)F)c(C)nc12` [CBK165210]: the viability at 28.5 h, 10 µM was 95.7%.
Under `O=C(O)c1ccc(S(=O)(=O)c2ccc(Oc3ccc4c(c3)C(=O)N(c3cccc(C(=O)O)c3)C4=O)cc2)cc1` [CBK263608] stands 96.7%; under `CN(Cc1cnn(C)c1)C(=O)COCc1nc2cc(F)ccc2[nH]1` [CBK306687], 94.3%; under `CCCNCc1ccc(-c2nnn(CC(=O)NCc3ccc(C4CCC4)cc3)n2)cc1` [CBK167525C], 105%.
For the compound `N#C/C(=C/c1ccc(-c2ccc(S(N)(=O)=O)cc2)o1)c1nc2ccccc2s1` [CBK264480], the viability at 28.5 h, 10 µM was found to be 83.8%.
Next, `Cc1nn(C)c(N2CCNCC2)c1NC(=O)/C=C/c1cccnc1` [CBK050354T]: 95.4%; `O=C(Nc1ccc(OC(F)(F)F)cc1)c1cnc(-c2ccc(Cl)cc2)c(-c2ccco2)c1` [CBK037456]: 106%.
Next, `O=C(NCc1ccc(OC2CCNCC2)cc1)c1cnccn1` [CBK036359T]: 104%.
Regarding `O=C(c1ccc(-c2cncc(-c3ccc(O)cc3)n2)cc1Cl)N1CCOCC1` [CBK123790], the viability at 28.5 h, 10 µM was found to be 94%.
In the case of `O=C(COc1cccnc1)N1CCN(c2ncccn2)CC1` [CBK144521], the viability at 28.5 h, 10 µM worked out at 86.5%.
In the case of `c1ccc2c(OCc3nc4ccccc4[nH]3)cccc2c1` [CBK262969], the viability at 28.5 h, 10 µM was determined as 106%.
Next, `CN1CCN(c2cc(C(F)(F)F)c3scc(C(=O)NCCC4=CCCCC4)c3n2)CC1` [CBK028474]: 110%; `COc1ccc(S(=O)(=O)N(C)CC(=O)N2CCOCC2)cc1C` [CBK267898]: 95.8%; `C(=C\c1nccnc1OCCc1cccs1)/c1ccccc1` [CBK106873]: 101%.
Under `O=C(O)c1cc(S(=O)(=O)N2CCCCC2)c(Cl)cc1N1CCCCC1` [CBK263408] stands 93.5%.
Next, `O=C(O)c1ccc(C(=O)NC2CCN(CC(F)(F)F)C2=O)s1` (stereo not drawn) [CBK305524]: 95.4%; `COc1ccc(CN(C)c2c(C)nc3c(OCCCN(C)S(C)(=O)=O)cccn23)cc1` [CBK147468]: 90%.
As for `COc1ccc(CN2CC[C@H]3NC(=O)CNC(=O)C4(C/C=C/C[C@H]3C2)CCN(C(C)=O)CC4)cc1` [CBK292013], the viability at 28.5 h, 10 µM came to 90.4%.
Under `Cc1nc(C)c(C(=O)NCCN2CCCCC2C)s1` (stereo not drawn) [CBK282200] stands 106%; under `CC(C)(C)C(=O)NCCn1c(=O)oc2ccccc21` [CBK282885], 96.4%; under `CC(=O)c1ccc(S(=O)(=O)Nc2ccc(C)cc2)cc1` [CBK045380], 108%.
Consider `CCCc1[nH]nc(O)c1CCc1cccc(OC)c1OC` [CBK075078], for which the viability at 28.5 h, 10 µM came out at 97%.
Regarding `COc1ccc(Nc2n[nH]c3nc(C)cc(=O)n23)cc1` [CBK288117], the viability at 28.5 h, 10 µM came to 91.1%.
Next, `COc1cc(C2NC(=O)N(CCc3ccccc3)C(c3ccccc3)=C2C(C)=O)ccc1O` (stereo not drawn) [CBK269024]: 108%.
Under `CN(CCc1ccccn1)C(=O)C1CN(C(=O)C2CC23CCC3)C1` (stereo not drawn) [CBK281969] stands 104%; under `CC(C)c1ccc(-c2cncc(NCCCO)n2)cc1` [CBK037937], 106%; under `Cc1ccc(CS(=O)(=O)N2CCN(CCO)C(C)C2)c(F)c1` (stereo not drawn) [CBK304702], 105%.
Under `O=C(COc1ccc(S(=O)(=O)N2CCCCC2)cc1Cl)NCc1ccccn1` [CBK269253] stands 89.6%; under `COc1ccc([N+](=O)[O-])cc1NC(=O)c1cc(Cl)c(OC)c(Cl)c1` [CBK268594], 82.6%; under `c1ccc2c(c1)nc1n2CN(Cc2ccc3c(c2)OCO3)CN1` [CBK268087], 99.1%.
With `CC(NC(=O)Cc1ccc(F)cc1)c1nc2cccnc2n1C(C)C` (stereo not drawn) [CBK283830], the viability at 28.5 h, 10 µM is 88.7%.
Under `CNC(=O)C1/C(=N\O)c2ccccc2N1C(C)=O` (stereo not drawn) [CBK006569] stands 114%; under `Oc1ccccc1-c1ccnc(SC(F)F)n1` [CBK021971], 81.8%.
Under `Cn1cc(CN(C(=O)c2nc(N)nc3c2CCCC3)C2CC2)cn1` [CBK307352] stands 90.1%; under `COC(=O)c1cc(O)ccc1N` [CBK002250], 105%.
Under `CCn1nc(C)c(-c2cncn2CCCOc2cccc(C)c2)c1C` [CBK281997] stands 98.2%; under `O=C(/C=C/c1ccccc1)N/C(=C/c1ccccc1)C(=O)Nc1ccc2ccccc2c1` [CBK265023], 89.6%.
On to `CC(C)NC(=O)[C@@H](C)C1CC[C@@]2(C)CC[C@H](NC(=O)c3ccncc3)[C@@H](C)[C@@H]2[C@H]1O` (stereo partly drawn) [CBK289449], for which the viability at 28.5 h, 10 µM turned out to be 89.1%.
Next, `CCc1nc2ccc(C(=O)NCCNC(C)=O)cn2c1N(C)Cc1ccc(NC(C)=O)cc1` [CBK145612]: 87.4%; `Cc1sc2nc(C(C)N(C)Cc3cc[nH]n3)[nH]c(=O)c2c1C` (stereo not drawn) [CBK306275]: 99.3%.
For the compound `CC(C)(CN1CCOCC1)NC(=O)c1cnc2cc(C(F)(F)F)ccc2c1O` [CBK107429], the viability at 28.5 h, 10 µM came to 102%.
For the compound `CCc1ccc2c(c1)C(CCNC(=O)c1c(C)noc1C(F)F)C(=O)N2` (stereo not drawn) [CBK304090], the viability at 28.5 h, 10 µM amounted to 95.1%.
`CC(C)NC(=O)c1cc(C2CN(Cc3ccc4ncccc4c3)CCO2)nc2ccccc12` (stereo not drawn) [CBK285895]: the viability at 28.5 h, 10 µM came out at 92.9%.
Under `Cc1noc(C)c1C(=O)N[C@H]1CO[C@H]2[C@@H]1OC[C@H]2OCc1ccccc1` [CBK289458] stands 96.7%; under `COc1cccc(CCC(=O)n2ccn(CCCOc3ccccc3)c2=O)c1` [CBK106565], 104%.
Under `O=C(NCc1nc2ccccc2s1)c1ccc2c(c1)OCCO2` [CBK295325] stands 107%; under `Cc1cc(Br)c2c(c1)C(O)(N1CCCCC1C)C(=O)N2` (stereo not drawn) [CBK265071], 97.9%.
Under `CN1CC(=O)N2CCOC(C2)c2cccc(n2)NC(=O)C/C=C/CC2(CCN(Cc3ncc[nH]3)CC2)C1=O` (stereo not drawn) [CBK292196] stands 103%.
Turning to `CCc1nc2ccc(C(=O)Nc3ccc(Cl)c(Cl)c3)cn2c1N(C)Cc1ccc(OC)cc1` [CBK145585], the viability at 28.5 h, 10 µM stood at 93.6%.
As for `COc1ccc(Oc2cncc(OC3CCN(CC4CCCCC4)C3)n2)cc1OC` (stereo not drawn) [CBK084413], the viability at 28.5 h, 10 µM was 96.4%.
Consider `CS(=O)(=O)N1CCC(Nc2nc(-c3cccs3)nc3ccccc23)CC1` [CBK305987], for which the viability at 28.5 h, 10 µM turned out to be 87.3%.
Next, `Cc1cc(NC(=O)C(C)Oc2ccccc2)nc2c1c(=O)oc1ccccc12` (stereo not drawn) [CBK291153]: 95.8%; `N#Cc1ccc(CN2CCC(NC3CCCn4nccc43)C2=O)cc1` (stereo not drawn) [CBK304770]: 97.8%.
Next, `OCC[C@H]1CN2CCCC2CN1Cc1cccc(Cl)c1Cl` (stereo partly drawn) [CBK285429]: 86.6%.
Next, `CC(C)Oc1ccc(CCNC(=N)NC(=N)N)cc1Cl` [CBK263966]: 91.5%.
On to `CCCCOc1ccc(-c2nnn(CC(=O)NCc3ccccc3)n2)cc1` [CBK068557], for which the viability at 28.5 h, 10 µM was found to be 96.8%.
Next, `Fc1ccc(N2CCN(Cc3cccc(OCc4ccccc4)c3)CC2)cc1` [CBK261916]: 94.6%; `COC(=O)c1ccc(N2C(=O)CC(NCCc3ccc(S(N)(=O)=O)cc3)C2=O)cc1` (stereo not drawn) [CBK262859]: 99.9%.
Under `Cn1cc(-c2nccnc2OC2CCCCC2)cn1` [CBK107072] stands 99.7%; under `NS(=O)(=O)c1ccc(CCNC2CC(=O)N(Cc3ccccc3)C2=O)cc1` (stereo not drawn) [CBK267439], 90.5%; under `O=C(CSc1nnc(-c2ccncc2)s1)Nc1ccc(Cl)cc1` [CBK270069], 87.9%.
Next, `Cc1nc2c(C(=O)NCCNC(=O)c3cccnc3)ncn2c(C)c1Cc1ccc(F)c(Cl)c1` [CBK169332]: 89.8%.
`Cc1cc(S(=O)(=O)N(CCC#N)Cc2ccccc2)c(C)cc1Cl` [CBK043461]: the viability at 28.5 h, 10 µM is 90.8%.
Consider `Cn1nnc2cc(NCC34CC3CN(C(=O)OC(C)(C)C)C4)ccc21` (stereo not drawn) [CBK304758], for which the viability at 28.5 h, 10 µM turned out to be 92.7%.
Consider `COC(=O)c1sccc1Oc1ccc([N+](=O)[O-])cn1` [CBK066826], for which the viability at 28.5 h, 10 µM stood at 115%.
For the compound `COc1ccc(-c2nc(-c3ccoc3)cnc2N)cc1OC` [CBK063964], the viability at 28.5 h, 10 µM is 105%.
Under `CC1(C)CC(=O)C(C(=S)Nc2ccc(F)cc2)=C(NCc2ccc3c(c2)OCO3)C1` [CBK264779] stands 97.5%; under `O=C(NC1CCCC1)c1ccnc2ccccc12` [CBK200237], 92.6%; under `CCCc1cc(C(=O)OC)c(NC(=O)C2C3CCC(C3)C2C(=O)O)s1` (stereo not drawn) [CBK057885], 98.5%.
As for `Cc1noc(C)c1C(=O)N(C)CC(=O)Nc1ccc(Cl)c(C(F)(F)F)c1` [CBK295363], the viability at 28.5 h, 10 µM was found to be 95.7%.
